For experiment [1], the system named is primary AML specimens. The experiment in a line: Dose-response assays in primary AML specimens (6 days, CellTiterGlo). The format is cell-based, human. The note with it: Homo sapiens, 144 h, read-out: median IC50 in a panel of 40 primary AMLs, 6 days. The procedure:
Freshly thawed primary AML specimens were used for chemical screens. Cryopreserved cells were thawed at 37 °C in IMDM containing 20% FBS and DNase I (100 μg/mL). Cells were resuspended in IMDM supplemented with 15% BIT (BSA, insulin, transferrin; StemCell Technologies), 100 ng/mL SCF, 50 ng/mL FLT3L, 20 ng/mL IL3, 20 ng/mL G-CSF, 10^−4 mol/L b-mercaptoethanol, gentamicin (50 μg/mL), ciprofloxacin (10 μg/mL), SR1 (500 nmol/L) and UM729 (500 nmol/L). Cells were plated in 384-well white plates, 5000 cells per well in 50 μL. Compounds were dissolved in DMSO, diluted in media immediately before use and added to seeded cells at the unique concentration of 1 μM. Control wells received DMSO (0.1%) only. Cell viability was evaluated after 6 days in culture using the CellTiterGlo assay according to the manufacturer’s instruction. Percentage of inhibition for dose response curves was calculated as 100 – (100 × (mean luminescence [compound]/mean luminescence [DMSO])). Dose response curves were generated using nonlinear regression in GraphPad Prism version.
Dose-response assays in primary AML specimens were performed as in chemical screen (see above) with the exception that compounds were tested in serial dilution (8 dilutions, 1:4, 10 μM down to 0.5 nM). Dose-response assays in OCI-AML5 cell line were conducted similarly with the following modifications: 300 cells per well were seeded in 50 μL of cell line media and cell viability was evaluated after 4 days in culture.
In general terms: ATP-based viability assays read luminescence as a measure of living cells.

The test system of experiment [2] is OCI-AML5 cells. The experiment in a line: Dose-response proliferative assay in OCI-AML5 (4 days, CellTiterGlo). The format is cell-based, H. sapiens. The gist of the method:
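OCI-AML5 cells in αMEM, 10% heat-inactivated FBS plus 10 ng/mL GM-CSF, 300 cells/well, exposed to 8-point 1:4 serial dilutions (10 μM down to 0.5 nM). Viability read after 4 days in culture at 37 °C, 5% CO2.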

The subject of experiment [3] is cyclin KeGFP. The experiment in a line: Cyclin KeGFP reporter system (eGFP/mCherry MFI by flow cytometry).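 Further: 10 μM compound for 3 h relative to DMSO.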 The format is cell-based, H. sapiens. The note with it: cyclin K-eGFP reporter. An outline of the steps:
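OCI-AML5 clone G7 carrying lentiviral cyclin KeGFP/mCherry reporter. eGFP and mCherry geometric MFI measured by flow cytometry; eGFP/mCherry ratio normalized to DMSO-treated cells.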

Experiment [4] deals with T1, CDK1 (Homo sapiens, UniProt P06493).
T1 construct: purchased BPS Bioscience 79597
The experiment in a line: CDK1 in vitro kinase activity, single concentration 1 μM. The format is biochemical. The note with it: single concentration 1 μM. The method, then:
(§1) Kinase activity was assessed using the kinase assay kits from BPS Bioscience for CDK1, CDK9 and CDK12 with Kinase Glo MAX in duplicates. Compounds were tested at a single concentration of 1 μM for CDK1 and CDK9 activity, and in a dilution ranging from 0.64 nM to 50 μM for CDK12 activity. Chemiluminescence was read using the Neo Synergy BioTek plate reader.

The target in experiment [5] is T2, CDK9/CyclinT (Homo sapiens, UniProt P50750).
T2 construct: purchased BPS Bioscience 79628
The experiment in a line: CDK9/CyclinT in vitro kinase activity, single concentration 1 μM. The format is biochemical. To be noted: single concentration 1 μM. The method, then: as §1

Experiment [6] has as its system OCI-AML5 cells expressing shRNAs targeting CDK1, 2, 4, 7, 9, cyclin K. The experiment in a line: Dose response in OCI-AML5 expressing shRNAs targeting CDK1, 2, 4, 7, 9, cyclin K or control. The format is cell-based, H. sapiens. The note with it: for pIC50: Homo sapiens.
For experiment [7], the system named is OCI-AML5 cells expressing shRNA targeting CUL4A or CUL4B. The experiment in a line: Dose response in OCI-AML5 expressing shRNAs targeting CUL4A, CUL4B or control. The note with it: ratio of IC50 in shCUL4A vs shCTRL OCI-AML5 cells. The format is cell-based, H. sapiens.
Experiment [8] has as its system OCI-AML5 and U937 cell lines. The experiment in a line: Synergistic interaction assay with THZ531 (Bliss score). The format is cell-based. An excerpt: 3. It may be worthwhile to investigate whether the CDK12/13 inhibitor THZ531 could synergize with S656 or analogues like UOM-005636 that specifically degrade Cyclin K, in combination cytotoxicity assays, assessing selective suppression of AML viability over normal cells. Both […]
inhibiting CDK12, and S656 / UOM-005636 by degrading Cyclin K. Similar synergistic effects were observed by Katharina et al., where THZ531 promoted prostate ca ncer cell sensitivity to androgen deprivation therapy [Frei, K et. al. Inhibition of the Cyclin K-CDK12 complex induces DNA damage and increases the effect of androgen deprivation therapy in prostate cancer. Int J […]
Indeed, THZ531 is a covalent CDK12/13 inhibitor that specifically binds to the kinase pocket of […]
pocket of CDK12, and that pre-incubation with THZ531 competes with S656-mediated Cyclin K degradation (see Figure 5E).
We performed a synergistic interaction assay between THZ531 and S656 or UOM-005636 in OCI-AML5 and U937 cell lines (see below). […]
interactions between THZ531 and our cyclin K degrader molecules. This is likely due to both drugs competing for the same binding site, rather than acting through complementary pathways. […]

Molecules are shown by their SMILES. pIC50: −log10 of the molar value. Read-outs that look alike come from different tables or passages of the source.

T1 sequence (P06493 whole entry): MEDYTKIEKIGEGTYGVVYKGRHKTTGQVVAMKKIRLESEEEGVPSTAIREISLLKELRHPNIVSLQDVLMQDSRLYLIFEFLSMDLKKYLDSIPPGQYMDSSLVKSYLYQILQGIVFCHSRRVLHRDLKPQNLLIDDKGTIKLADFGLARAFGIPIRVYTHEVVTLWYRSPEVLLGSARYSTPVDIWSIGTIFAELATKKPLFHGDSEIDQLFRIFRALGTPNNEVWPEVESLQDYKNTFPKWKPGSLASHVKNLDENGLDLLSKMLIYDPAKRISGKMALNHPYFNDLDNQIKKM
T1 sequence (P14635 whole entry partner): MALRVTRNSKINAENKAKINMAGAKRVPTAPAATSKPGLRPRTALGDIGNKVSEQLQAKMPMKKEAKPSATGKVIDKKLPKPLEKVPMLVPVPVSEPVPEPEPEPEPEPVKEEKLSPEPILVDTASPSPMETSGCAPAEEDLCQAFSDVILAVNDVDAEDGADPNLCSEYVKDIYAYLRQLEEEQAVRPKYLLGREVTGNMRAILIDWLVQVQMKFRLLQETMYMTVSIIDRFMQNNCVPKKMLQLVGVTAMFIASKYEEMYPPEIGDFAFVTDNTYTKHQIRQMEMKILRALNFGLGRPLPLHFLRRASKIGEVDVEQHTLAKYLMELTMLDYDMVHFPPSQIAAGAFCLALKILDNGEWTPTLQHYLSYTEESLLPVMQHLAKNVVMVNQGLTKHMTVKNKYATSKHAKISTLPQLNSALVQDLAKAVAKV
T2 sequence (P50750 whole entry): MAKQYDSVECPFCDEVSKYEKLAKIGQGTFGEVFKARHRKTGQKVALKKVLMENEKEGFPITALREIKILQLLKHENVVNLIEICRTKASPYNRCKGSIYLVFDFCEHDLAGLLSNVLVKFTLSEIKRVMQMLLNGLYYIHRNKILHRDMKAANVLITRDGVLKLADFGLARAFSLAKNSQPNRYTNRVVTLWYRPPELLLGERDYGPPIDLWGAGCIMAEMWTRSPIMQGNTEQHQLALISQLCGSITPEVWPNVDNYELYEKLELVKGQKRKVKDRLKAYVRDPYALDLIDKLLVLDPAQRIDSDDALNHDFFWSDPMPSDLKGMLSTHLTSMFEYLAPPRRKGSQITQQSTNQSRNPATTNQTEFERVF
T2 sequence (O60563 whole entry partner): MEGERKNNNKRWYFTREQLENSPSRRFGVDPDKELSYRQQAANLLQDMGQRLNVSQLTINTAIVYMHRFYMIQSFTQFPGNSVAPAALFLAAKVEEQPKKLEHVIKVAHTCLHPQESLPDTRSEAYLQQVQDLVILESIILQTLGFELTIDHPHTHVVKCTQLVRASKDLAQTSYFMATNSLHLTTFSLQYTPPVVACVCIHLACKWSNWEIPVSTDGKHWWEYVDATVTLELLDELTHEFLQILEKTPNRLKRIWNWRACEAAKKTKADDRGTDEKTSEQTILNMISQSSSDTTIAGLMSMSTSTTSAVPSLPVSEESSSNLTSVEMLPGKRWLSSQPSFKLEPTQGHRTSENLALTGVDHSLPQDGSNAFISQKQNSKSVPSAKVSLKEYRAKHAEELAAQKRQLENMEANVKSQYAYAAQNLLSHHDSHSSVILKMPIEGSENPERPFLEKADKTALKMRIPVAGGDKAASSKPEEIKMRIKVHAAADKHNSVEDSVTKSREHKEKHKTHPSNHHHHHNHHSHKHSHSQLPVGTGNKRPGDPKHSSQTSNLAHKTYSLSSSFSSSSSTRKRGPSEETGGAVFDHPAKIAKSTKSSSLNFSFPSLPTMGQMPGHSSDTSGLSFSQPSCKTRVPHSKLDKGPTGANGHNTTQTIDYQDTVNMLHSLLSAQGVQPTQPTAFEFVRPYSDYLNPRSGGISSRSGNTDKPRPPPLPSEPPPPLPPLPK

For `O=C(Cc1ccc(-c2ccccn2)cc1)Nc1ncc(SCc2cccnc2)s1` [UOM-005636], the negative logarithm of the IC50 (pIC50) is 6.81 in experiment [1]; 7.07 in experiment [2] (Homo sapiens, OCI-AML-5, 96 h, 4 days incubation, read-out: IC50 OCI-AML5); 7.66 in experiment [6] (OCI-AML-5, OCI-AML5 expressing shRNA CCNK (cyclin K), read-out: IC50 shRNA CCNK); 6.95 in experiment [6] (OCI-AML-5, OCI-AML5 expressing shRNA CDK1, read-out: IC50 shRNA CDK1); 6.85 in experiment [6] (OCI-AML-5, OCI-AML5 expressing shRNA CDK2, read-out: IC50 shRNA CDK2); 6.85 in experiment [6] (OCI-AML-5, OCI-AML5 expressing shRNA CDK4, read-out: IC50 shRNA CDK4). The pIC50 in experiment [6] (OCI-AML-5, OCI-AML5 expressing shRNA CDK7, read-out: IC50 shRNA CDK7) is 6.85; in experiment [6] (OCI-AML-5, OCI-AML5 expressing shRNA CDK9, read-out: IC50 shRNA CDK9), 7.00. The “times more potent than S656” value in experiment [2] (OCI-AML5 cell line and panel of 40 primary AMLs) stood at 8. The “% degradation cyclin K-eGFP” value in experiment [3] is 80%. Further, the figures for the inhibition at 1 µM in experiment [4] and in experiment [5] were 69% and 57%, respectively. Also, the “class based on cellular selectivity” value in experiment [6] (IC50 in shRNA OCI-AML5 cells and cyclin KeGFP degradation) is “Class I (effective cyclin K MGDs (decreased IC50 in cyclin K depleted cells only, and >65% degradation of cyclin KeGFP))”. In addition, in experiment [6] (class from shRNA IC50 profile and cyclin K-eGFP degradation), the Class came to 1. Also, in experiment [7], the “Ratio shCUL4A/shCTRL” value worked out at 2.3. Moreover, the “synergistic interaction with THZ531 (Bliss score)” value in experiment [8] is given as “moderate to very low synergistic”.

As a reminder, the pIC50 is the negative decadic logarithm of the IC50, by convention in mol/L. What is called inhibition is the share of the control response that was lost under treatment.

These data come from publication PMC12152147, “DDB1 engagement defines the selectivity of S656 analogs for cyclin K degradation over CDK inhibition” (EMBO Reports, 2025).
